ChEMBL document CHEMBL2157957, “Strategies to mitigate the bioactivation of 2-anilino-7-aryl-pyrrolo[2,1-f][1,2,4]triazines: identification of orally bioavailable, efficacious ALK inhibitors” (J Med Chem, 2012)

Key:
[1] = molecular target: ALK tyrosine kinase receptor (Homo sapiens, UniProt Q9UM73); assay: Inhibition of GST-tagged human ALK cytoplasmic domain (1058-1620) expressed in Sf21 insect cells using GST-tagged human recombinant PLC-gamma/substrate by ELISA
[2] = Half life in CD1 mouse liver microsomes at 0.5 uM preincubated for 10 mins before NADPH and UDPGA challenge; format: ADME, Microsome
[3] = Half life in Sprague-Dawley rat liver microsomes at 0.5 uM preincubated for 10 mins before NADPH and UDPGA challenge; format: ADME, Microsome
[4] = Half life in monkey liver microsomes at 0.5 uM preincubated for 10 mins before NADPH and UDPGA challenge; format: ADME, Macaca mulatta, Microsome; details: rhesus monkey
[5] = Half life in human liver microsomes at 0.5 uM preincubated for 10 mins before NADPH and UDPGA challenge; format: ADME, Microsome
[6] = molecular target: NPM/ALK (Nucleophosmin/ALK tyrosine kinase receptor) (Homo sapiens, UniProt Q9UM73); assay: Inhibition of human NPM-ALK phosphorylation using 4-MeUP substrate by cell based assay
[7] = Oral bioavailability in Sprague-Dawley rat at 5 mg/kg; format: ADME, organism-based; details: in vivo
[8] = AUC (0 to t) in Sprague-Dawley rat at 5 mg/kg, po; format: ADME, organism-based; set-up: dose 5 mg/kg, route oral; details: plasma
[9] = Half life in rat liver S9 fraction; format: ADME, subcellular
[10] = Half life in Sprague-Dawley rat at 1 mg/kg, iv; format: ADME, organism-based; set-up: dose 1 mg/kg, route intravenous; details: in vivo
[11] = Clearance in Sprague-Dawley rat at 1 mg/kg, iv; format: ADME, organism-based; set-up: dose 1 mg/kg, route intravenous; details: in vivo
[12] = molecular target: Insulin receptor (Homo sapiens, UniProt P06213); assay: Inhibition of IR
Sequence of Insulin receptor (P06213 28-758 limits assumed): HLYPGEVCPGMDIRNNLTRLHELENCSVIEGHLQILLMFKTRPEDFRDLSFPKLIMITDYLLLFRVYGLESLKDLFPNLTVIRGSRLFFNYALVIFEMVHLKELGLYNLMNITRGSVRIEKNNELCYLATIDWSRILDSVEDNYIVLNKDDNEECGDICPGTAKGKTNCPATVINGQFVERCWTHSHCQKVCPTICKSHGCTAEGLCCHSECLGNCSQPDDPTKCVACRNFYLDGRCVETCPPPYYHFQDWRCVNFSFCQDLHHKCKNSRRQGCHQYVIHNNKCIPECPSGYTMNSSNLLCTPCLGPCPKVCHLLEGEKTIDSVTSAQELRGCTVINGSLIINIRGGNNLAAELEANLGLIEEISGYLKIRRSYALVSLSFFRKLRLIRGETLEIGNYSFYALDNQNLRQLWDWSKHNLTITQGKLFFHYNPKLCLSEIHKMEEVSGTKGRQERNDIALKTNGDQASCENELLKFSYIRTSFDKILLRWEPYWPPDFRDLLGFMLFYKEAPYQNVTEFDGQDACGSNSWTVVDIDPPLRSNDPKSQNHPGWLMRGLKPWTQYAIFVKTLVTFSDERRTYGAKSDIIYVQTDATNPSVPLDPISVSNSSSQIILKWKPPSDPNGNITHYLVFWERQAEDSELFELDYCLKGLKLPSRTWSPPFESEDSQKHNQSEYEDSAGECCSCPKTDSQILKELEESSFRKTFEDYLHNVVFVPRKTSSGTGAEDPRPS
Sequence of Insulin receptor (P06213 763-1382 limits assumed): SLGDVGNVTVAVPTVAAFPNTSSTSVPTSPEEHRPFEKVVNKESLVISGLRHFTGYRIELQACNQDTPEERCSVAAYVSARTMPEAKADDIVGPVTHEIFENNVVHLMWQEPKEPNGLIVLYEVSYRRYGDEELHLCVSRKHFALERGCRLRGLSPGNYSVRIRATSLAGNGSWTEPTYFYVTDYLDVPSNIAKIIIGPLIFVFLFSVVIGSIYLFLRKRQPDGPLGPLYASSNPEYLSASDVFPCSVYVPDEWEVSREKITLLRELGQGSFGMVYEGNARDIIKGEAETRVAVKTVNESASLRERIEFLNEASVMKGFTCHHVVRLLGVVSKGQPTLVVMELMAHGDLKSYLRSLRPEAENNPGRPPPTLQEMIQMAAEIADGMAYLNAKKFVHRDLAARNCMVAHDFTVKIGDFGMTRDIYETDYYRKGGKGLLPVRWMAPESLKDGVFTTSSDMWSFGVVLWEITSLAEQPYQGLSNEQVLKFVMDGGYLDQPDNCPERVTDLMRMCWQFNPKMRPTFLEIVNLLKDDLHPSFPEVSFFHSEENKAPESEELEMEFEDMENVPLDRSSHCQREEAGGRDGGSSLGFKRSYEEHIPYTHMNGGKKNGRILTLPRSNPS

Sequence of NPM/ALK (Nucleophosmin/ALK tyrosine kinase receptor) (Q9UM73 whole entry): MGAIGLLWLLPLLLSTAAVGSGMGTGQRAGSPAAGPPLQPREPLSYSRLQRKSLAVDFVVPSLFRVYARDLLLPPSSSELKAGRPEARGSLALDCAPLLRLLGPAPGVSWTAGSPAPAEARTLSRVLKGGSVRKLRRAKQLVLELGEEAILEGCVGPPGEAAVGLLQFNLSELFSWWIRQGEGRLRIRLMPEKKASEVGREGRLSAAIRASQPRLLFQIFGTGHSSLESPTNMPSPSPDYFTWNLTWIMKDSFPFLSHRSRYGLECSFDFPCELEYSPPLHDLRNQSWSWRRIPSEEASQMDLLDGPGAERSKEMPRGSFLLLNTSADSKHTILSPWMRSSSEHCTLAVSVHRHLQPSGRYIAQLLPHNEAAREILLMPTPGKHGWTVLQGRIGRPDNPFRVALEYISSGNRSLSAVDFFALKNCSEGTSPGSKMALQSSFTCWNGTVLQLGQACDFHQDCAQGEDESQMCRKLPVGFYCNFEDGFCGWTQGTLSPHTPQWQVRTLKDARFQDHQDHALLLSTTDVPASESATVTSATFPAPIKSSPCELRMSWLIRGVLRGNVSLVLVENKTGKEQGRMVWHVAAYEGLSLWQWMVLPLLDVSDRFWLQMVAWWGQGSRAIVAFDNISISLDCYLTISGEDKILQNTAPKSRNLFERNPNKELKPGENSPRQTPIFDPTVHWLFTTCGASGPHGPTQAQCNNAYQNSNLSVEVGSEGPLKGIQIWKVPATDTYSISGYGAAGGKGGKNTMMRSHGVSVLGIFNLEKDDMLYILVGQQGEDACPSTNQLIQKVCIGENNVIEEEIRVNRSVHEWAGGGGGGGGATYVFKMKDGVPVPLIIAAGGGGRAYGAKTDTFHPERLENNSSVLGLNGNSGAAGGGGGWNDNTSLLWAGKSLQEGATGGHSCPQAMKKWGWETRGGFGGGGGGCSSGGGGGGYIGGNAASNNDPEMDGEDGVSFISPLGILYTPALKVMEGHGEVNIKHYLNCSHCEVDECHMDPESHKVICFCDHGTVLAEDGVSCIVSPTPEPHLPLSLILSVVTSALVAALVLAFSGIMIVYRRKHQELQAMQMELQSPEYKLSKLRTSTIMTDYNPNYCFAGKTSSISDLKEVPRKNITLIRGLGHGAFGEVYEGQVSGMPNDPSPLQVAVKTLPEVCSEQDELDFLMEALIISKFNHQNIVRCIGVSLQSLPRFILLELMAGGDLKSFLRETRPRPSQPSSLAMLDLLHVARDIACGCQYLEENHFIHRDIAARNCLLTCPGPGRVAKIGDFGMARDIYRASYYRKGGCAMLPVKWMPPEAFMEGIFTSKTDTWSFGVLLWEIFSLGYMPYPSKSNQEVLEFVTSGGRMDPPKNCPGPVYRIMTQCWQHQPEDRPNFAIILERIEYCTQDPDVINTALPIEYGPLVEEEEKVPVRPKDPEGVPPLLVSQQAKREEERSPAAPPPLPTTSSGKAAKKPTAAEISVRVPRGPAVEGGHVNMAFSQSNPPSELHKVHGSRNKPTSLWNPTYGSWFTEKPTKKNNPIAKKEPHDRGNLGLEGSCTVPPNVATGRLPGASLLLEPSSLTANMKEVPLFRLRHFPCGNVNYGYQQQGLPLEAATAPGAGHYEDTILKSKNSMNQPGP
Sequence of NPM/ALK (Nucleophosmin/ALK tyrosine kinase receptor) (P06748 whole entry, further chain): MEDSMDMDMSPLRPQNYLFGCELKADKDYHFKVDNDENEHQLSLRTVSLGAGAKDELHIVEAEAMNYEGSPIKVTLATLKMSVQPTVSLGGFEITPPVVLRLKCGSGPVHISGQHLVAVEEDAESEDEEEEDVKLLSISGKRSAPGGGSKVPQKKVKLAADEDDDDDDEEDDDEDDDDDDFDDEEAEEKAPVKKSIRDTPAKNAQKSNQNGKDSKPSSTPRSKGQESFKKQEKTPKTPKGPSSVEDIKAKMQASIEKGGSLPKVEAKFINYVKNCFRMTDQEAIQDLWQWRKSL
Sequence of ALK tyrosine kinase receptor (Q9UM73 whole entry, the tested form may be a part): as the sequence (Q9UM73 whole entry) above

SMILES	IC50 [1]	half-life at 0.5 µM [2]	half-life at 0.5 µM [3]	half-life at 0.5 µM [4]	half-life at 0.5 µM [5]	IC50 [6]	bioavailability [7]	AUC(0-t) [8]	half-life [9]	half-life [10]	clearance [11]	IC50 [12]
C[C@H](O)CN1CCN(c2cc(F)c(Nc3ncc4ccc(-c5ccccc5N(C)S(C)(=O)=O)n4n3)cc2F)CC1	0.091 µM	–	–	–	–	–	–	–	–	–	–	–
COc1ccc(N2CCN(C)CC2)cc1Nc1ncc2ccc(-c3ccccc3N(C)S(C)(=O)=O)n2n1	0.028 µM	–	–	–	–	–	–	–	–	–	–	–
COc1ccc(N2CCN(C)CC2)cc1Nc1ncc2ccc(-c3ccccc3OC)n2n1	0.187 µM	–	–	–	–	–	–	–	–	–	–	–
COc1cc(C2CCNCC2)ccc1Nc1ncc2ccc(-c3ccccc3N(C)S(C)(=O)=O)n2n1	0.01 µM	> 40 min	22 min	< 5 min	7 min	0.04 µM	–	–	–	–	–	–
COc1cc(C2CCN(C(=O)C(C)(C)N)CC2)ccc1Nc1ncc2ccc(-c3ccccc3OC)n2n1	0.007 µM	–	> 40 min	–	–	0.15 µM	13%	–	> 40 min	156 min	1.5 L/h/kg	0.579 µM
COc1cc(C2CCN(C(=O)C3CCN3)CC2)ccc1Nc1ncc2ccc(-c3ccccc3OC)n2n1 (racemic)	0.011 µM	–	> 40 min	–	–	0.2 µM	15%	–	> 40 min	150 min	1.92 L/h/kg	0.335 µM

Molecules with a lower IC50 [1], results first:

IC50 [1]	half-life at 0.5 µM [2]	half-life at 0.5 µM [3]	half-life at 0.5 µM [4]	half-life at 0.5 µM [5]	IC50 [6]	bioavailability [7]	AUC(0-t) [8]	half-life [9]	half-life [10]	clearance [11]	IC50 [12]	SMILES
0.006 µM	> 40 min	21 min	< 5 min	< 5 min	0.06 µM	–	–	–	–	–	–	COc1cc(C2CCN(CCO)CC2)ccc1Nc1ncc2ccc(-c3ccccc3N(C)S(C)(=O)=O)n2n1
0.006 µM	> 40 min	11 min	< 5 min	< 5 min	0.07 µM	–	–	–	–	–	–	COc1cc(C2CCN(C[C@@H](C)O)CC2)ccc1Nc1ncc2ccc(-c3ccccc3N(C)S(C)(=O)=O)n2n1
0.006 µM	–	–	–	–	0.07 µM	3%	–	–	84 min	1.74 L/h/kg	0.222 µM	COc1cc(C2CCN(C)CC2)ccc1Nc1ncc2ccc(-c3ccccc3OC)n2n1
0.0034 µM	> 40 min	> 40 min	21 min	> 40 min	0.1 µM	< 1%	0.011 µg·h/mL	> 40 min	–	–	–	COc1cc(C2CCN(C[C@@H](C)O)CC2)ccc1Nc1ncc2ccc(-c3ccccc3OC)n2n1
0.003 µM	–	> 40 min	–	–	0.08 µM	16%	–	> 40 min	84 min	3.72 L/h/kg	0.149 µM	COc1cc(C2CCN(CC(O)CF)CC2)ccc1Nc1ncc2ccc(-c3ccccc3OC)n2n1 (racemic)
0.0029 µM	–	> 40 min	–	–	0.03 µM	15%	–	> 40 min	120 min	2.34 L/h/kg	0.164 µM	COc1cc(C2CCN(C[C@H](O)CO)CC2)ccc1Nc1ncc2ccc(-c3ccccc3OC)n2n1
